Data on 13 compounds can be found in patent US5767116A, “Bicyclic aromatic compounds as therapeutic agents” (Knoll Atkiengesellschaft, priority 1993, dated 1998).

Structures can show the parent of a compound that is named as a salt. Where two headings read alike, the source gives them in different places.

For one assay, the target named is T1, 5-HT1A receptors (Rattus norvegicus, UniProt P19327).
T1 sequence (P19327 1-422): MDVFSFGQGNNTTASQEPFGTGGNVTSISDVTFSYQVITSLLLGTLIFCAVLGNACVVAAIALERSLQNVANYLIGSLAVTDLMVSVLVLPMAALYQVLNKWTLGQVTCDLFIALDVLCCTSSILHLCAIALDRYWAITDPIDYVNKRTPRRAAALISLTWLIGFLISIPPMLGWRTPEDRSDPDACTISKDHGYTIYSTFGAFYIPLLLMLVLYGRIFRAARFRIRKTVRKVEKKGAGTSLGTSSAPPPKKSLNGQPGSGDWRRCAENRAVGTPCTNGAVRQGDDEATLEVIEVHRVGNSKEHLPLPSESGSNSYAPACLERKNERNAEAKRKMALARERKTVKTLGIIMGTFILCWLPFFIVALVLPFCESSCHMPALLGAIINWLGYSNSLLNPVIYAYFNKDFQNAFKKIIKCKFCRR
As to the kind of experiment: biochemical. In kind it is binding, rat (male Charles River CD). The following applies: for Ki: 25° C., 30 minutes. The method, then:
The pellet was rehomogenised in the same buffer, incubated at 37° C. for 10 minutes and centrifuged at 30,000 g at 4° C. for 10 minutes. […] Aliquots (400 μl; equivalent to 2.5 mg wet weight of tissue/tube) of this suspension were added to tubes containing the ligand (50 μl; 2 nM) and distilled water (50 μl; total binding) or 5-HT (50 μl; 10 µM; non-specific binding) or test compound (50 μl; at a single concentration of 10^-6 M or at 10 concentrations ranging from 10^-11 -10^-3 M). The ligand was [^3 H]8-hydroxy-2-(dipropylamino)tetralin([^3 H]8-OH-DPAT) and the mixture was incubated at 25° C. for 30 minutes before the incubation was terminated by rapid filtration.
(§1) The filters were punched out into vials, scintillation fluid added and radioactivity determined by liquid scintillation counting. The percentage displacement of specific binding of the tritiated ligand was calculated for the single concentration (10^-6 M) of test compound. Displacement curves were then produced for those compounds which displaced ≥50% of specific binding of the tritiated ligand at 10^-6 M using a range of concentrations of the compound. […] The inhibition coefficient Ki was then calculated using the formula [formula] in which [ligand] is the concentration of the tritiated ligand used and KD is the equilibrium dissociation constant for the ligand.

A further assay addresses T2, α2-adrenoceptors (Rattus norvegicus, UniProt P22909).
T2 sequence (P22909 1-465): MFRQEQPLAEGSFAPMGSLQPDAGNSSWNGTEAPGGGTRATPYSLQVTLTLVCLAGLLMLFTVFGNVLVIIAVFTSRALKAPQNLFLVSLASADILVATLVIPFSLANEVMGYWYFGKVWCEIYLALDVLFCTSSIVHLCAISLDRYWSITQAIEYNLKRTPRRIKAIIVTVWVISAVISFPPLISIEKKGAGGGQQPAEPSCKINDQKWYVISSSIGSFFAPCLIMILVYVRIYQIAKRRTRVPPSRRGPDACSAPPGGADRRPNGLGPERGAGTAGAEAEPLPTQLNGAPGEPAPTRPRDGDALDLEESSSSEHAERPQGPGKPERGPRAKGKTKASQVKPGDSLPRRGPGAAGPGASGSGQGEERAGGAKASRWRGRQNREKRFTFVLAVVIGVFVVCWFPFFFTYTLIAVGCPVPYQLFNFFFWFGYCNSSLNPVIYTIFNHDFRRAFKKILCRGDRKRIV
As to the kind of experiment: inhibition of tritiated ligand (tritiated idazoxan) binding to α2-adrenoceptors in vitro (frontal cortical tissue). Also on record: species or system rat (male Charles River CD). Particulars: for Ki: 0° C., 75 minutes, > from highest concentration which displaced ≤50% of the ligand. The method, then:
Frontal cortical tissue from the brains of male Charles River CD rats weighing between 150-250 g were homogenised in ice-cold 0.25M sucrose (1:30 w/v) and centrifuged at 1,000 g at 4° C. for 12 minutes. The supernatant was stored on ice and the pellet was rehomogenised in 0.25M sucrose (1:15 w/v) and centrifuged at 850 g at 4° C. for 12 minutes. Combined supernatants were diluted with 5 mM Tris-HCl (pH 7.5) containing 0.5M ethylenediamine tetraacetic acid (EDTA) readjusted to pH 7.5 (at 25° C.) with 1M sodium hydroxide to 1:80 w/v, and centrifuged at 30,000 g at 4° C. for 10 minutes. The resulting pellet was resuspended in 5 mM Tris-HCl (pH 7.5) containing 5.68 mM L-ascorbic acid and 5 mM EDTA readjusted to pH 7.5 (at 25° C.) with 1M sodium hydroxide, and centrifuged at 30,000 g for 10 minutes. The final pellet was resuspended in 50 mM Tris-HCl (pH 7.5) containing 5.68 mM L-ascorbic acid and 5 mM EDTA (equivalent to 12.5 mg wet weight of tissue/ml) and used immediately in the binding assay. Aliquots (400 μl; equivalent to 5 mg wet weight of tissue/tube) of this suspension were added to tubes containing the ligand (50 μl; 1 nM) and distilled water (50 μl; total binding) or phentolamine (50 μl; 5 μM; non-specificbinding) or test compound (50 μl; at a single concentration of 10^-6 M or at 10 concentrations ranging from 10^-11 -10^-3 M). The ligand was tritiated idazoxan ((1,4-[6,7(n)-^3 H]benzodioxan-2-yl)-2-imidazoline hydrochloride) and the mixture was incubated at 0° C. for 75 minutes before the incubation was terminated by rapid filtration.
as §1, with “The filters were washed with ice-cold Tris-HCl buffer and dried. The filters” for “The filters”

For the next assay, the target named is D2 dopamine receptors (Rattus norvegicus, UniProt P61169). Put plainly: biochemical. In kind it is binding, rat (male Charles River CD).
Sequence of D2 dopamine receptors (P61169 whole entry): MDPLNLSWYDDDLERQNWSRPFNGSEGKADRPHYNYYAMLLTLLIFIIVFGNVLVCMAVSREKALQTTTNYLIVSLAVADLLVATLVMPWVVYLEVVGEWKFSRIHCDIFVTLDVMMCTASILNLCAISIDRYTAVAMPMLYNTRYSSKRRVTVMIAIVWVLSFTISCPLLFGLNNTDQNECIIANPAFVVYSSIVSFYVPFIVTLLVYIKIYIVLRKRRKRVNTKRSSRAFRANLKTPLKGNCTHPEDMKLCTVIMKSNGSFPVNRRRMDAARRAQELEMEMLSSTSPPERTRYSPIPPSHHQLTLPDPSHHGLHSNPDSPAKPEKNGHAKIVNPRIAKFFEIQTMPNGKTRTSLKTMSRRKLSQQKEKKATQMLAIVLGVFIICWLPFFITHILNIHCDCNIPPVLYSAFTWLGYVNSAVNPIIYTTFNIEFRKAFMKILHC
The test system of a further assay is α1-adrenoceptors. Put plainly: inhibition of tritiated ligand ([7-methoxy-^3 H]prazosin) binding to α1-adrenoceptors in vitro (whole cortical tissue). Also on record: species or system rat (male Charles River CD). The following applies: rat whole cortical tissue; for % displacement at 10^-6 M, α1: 30 min, 1 µM; for Ki: 30° C., 30 minutes, > from highest concentration which displaced ≤50% of the ligand. Here is the method: The supernatant was centrifuged at 30,000 g at 4° C. for 10 minutes. […] Aliquots (400 μl; equivalent to 5 mg wet weight of tissue/tube) of this suspension were added to tubes containing the ligand (50 μl; 0.1 nM) and distilled water (50 μl; total binding) or phentolamine (50 μl; 5 μM; non-specific binding) or test compound (50 μl; at a single concentration of 10^-6 M or at 10 concentrations ranging from 10^-11 -10^-3 M). The ligand was [7-methoxy-^3 H]prazosin and the mixture was incubated at 30° C. for 30 minutes before the incubation was terminated by rapid filtration.
as §1

[1] abbreviates: 10^-6 M, rat hippocampal tissue, [^3 H]8-OH-DPAT, read-out: % displacement at 10^-6 M, 5-HT1A.
Setting [2] is: rat frontal cortical tissue, tritiated idazoxan.
Where [3] appears, read: rat striatal tissue, tritiated (S)-sulpiride, 4° C., 40 minutes.
[4] abbreviates: read-out: % displacement at 10^-6 M, 5-HT1A, 10^-6 M, rat hippocampal tissue, [^3 H]8-OH-DPAT.
Setting [5] is: read-out: % displacement at 10^-6 M, α2, 10^-6 M, rat frontal cortical tissue, tritiated idazoxan.
The mark [6] stands for this setting: rat hippocampal tissue, [^3 H]8-OH-DPAT.
The mark [7] stands for this setting: 10^-6 M, rat frontal cortical tissue, tritiated idazoxan, read-out: % displacement at 10^-6 M, α2.

As a reminder, the Ki is the dissociation constant of the complex between target and ligand, obtained from inhibition or displacement. Read a high Ki as weaker binding. With `COc1ccccc1NCCCNCC1COc2cccc(OC)c2O1.O=C(O)/C=C\C(=O)O` (centres unmarked) [Example 17, N-(8-methoxy-1,4-benzodioxan-2-ylmethyl)-N'-(2-methoxyphenyl)-1,3-propanediamine maleate], the inhibition at 1 µM at 5-HT1A receptors (setting [1]) came out at 99%. Besides, the values for the Ki on α2-adrenoceptors (setting [2]) and on D2 dopamine receptors (setting [3]) were greater than 500 nM and 4.3 nM, respectively. The “% displacement at 10^-6 M, α1” value with α1-adrenoceptors stood at 93%.
“N-(5-fluoro-1,4-benzodioxan-2-ylmethyl)-1-[1-(2-methoxyphenyl) piperid-4-yl]methylamine hydrochloride and N-(8-fluoro-1,4-benzodioxan-2-ylmethyl)-1-[1-(2-methoxyphenyl) piperid-4-yl]methylamine hydrochloride [Example 23]”: the “% displacement at 10^-6 M, 5-HT1A” value at 5-HT1A receptors (10^-6 M, rat hippocampal tissue, [^3 H]8-OH-DPAT) came out at 92%. Moreover, on α2-adrenoceptors (10^-6 M, rat frontal cortical tissue, tritiated idazoxan, 1 µM), the “% displacement at 10^-6 M, α2” value worked out at 75%. In addition, the affinity at D2 dopamine receptors, expressed as Ki, was 43 nM. Also, in the assay with α1-adrenoceptors, the “% displacement at 10^-6 M, α1” value came out at 92%.
`Cl.Cl.c1ccc(N2CCC(CNCC3COc4ccccc4O3)CC2)nc1` (single isomer, unassigned; (-)) [Example 19, (-)-N-(1,4-benzodioxan-2-ylmethyl)-1-[1-(pyrid-2-yl)piperid-4-yl]methylamine dihydrochloride]: the inhibition at 1 µM at 5-HT1A receptors (setting [4]) worked out at 98%; at α2-adrenoceptors (setting [5]), 96%. Also, in the assay with α1-adrenoceptors, the “% displacement at 10^-6 M, α1” value worked out at 98%.
For `Clc1cccnc1N1CCC(CNCC2COc3ccccc3O2)CC1` (centres unmarked) [Example 3, N-(1,4-benzodioxan-2-ylmethyl)-1-[1-(3-chloropyrid-2-yl)piperid-4-yl]methylamine 1.4 hydrochloride], the inhibition constant Ki amounted to 1.9 nM on 5-HT1A receptors (setting [6]), 86 nM on α2-adrenoceptors (setting [2]), 45.3 nM on D2 dopamine receptors (setting [3]) and 38 nM on α1-adrenoceptors.
Turning to `Cl.Cl.c1ccc(N2CCC(CNCC3COc4ccccc4O3)CC2)cc1` (centres unmarked) [Example 12, N-(1,4-benzodioxan-2-ylmethyl)-1-(1-phenylpiperid-4-yl)methylamine dihydrochloride], the inhibition at 1 µM on 5-HT1A receptors (setting [4]) stood at 97%; at α2-adrenoceptors (setting [5]) it was 66%. In the assay on α1-adrenoceptors, the “% displacement at 10^-6 M, α1” value was determined as 89%.
In the same order, the values of `COc1ccccc1NCC1CCN(CC2COc3ccccc3O2)CC1.O=C(O)C(=O)O` (centres unmarked) [Example 15, 1-[1-(1,4-benzodioxan-2-ylmethyl)piperid-4-yl]-N-(2-methoxyphenyl)methylamine mono-oxalate] are 97%, 94% and 94%.
For `COc1ccccc1N1CCC(CNCC2COc3cccc(O)c3O2)CC1` (centres unmarked) [Example 28, N-(8-hydroxy-1,4-benzodioxan-2-ylmethyl) -1-[1-(2-methoxyphenyl)piperid-4-yl]methylamine], the inhibition at 1 µM on 5-HT1A receptors (setting [1]) is 94%. The Ki on α2-adrenoceptors (setting [2]) and on α1-adrenoceptors was greater than 500 nM each time.
Consider `Cl.Cl.c1ccc2c(c1)OCC(CNCC1CCN(c3cccc4c3OCCO4)CC1)O2` (centres unmarked) [Example 13, N-(1,4-benzodioxan-2-ylmethyl)-1-[1-(1,4-benzodioxan-5-yl)piperid-4-yl]methylamine dihydrochloride], for which the inhibition at 1 µM turned out to be 100% at 5-HT1A receptors (setting [4]) and 66% at α2-adrenoceptors (setting [5]). In addition, the “% displacement at 10^-6 M, α1” value in the assay with α1-adrenoceptors is 93%.
Turning to `c1ccc(N2CCC(CNCC3COc4ccccc4O3)CC2)nc1` (single isomer, unassigned; (+)) [Example 20, (+)-N-(1,4-benzodioxan-2-ylmethyl)-1-[1-pyrid-2-yl)piperid-4-yl]methylamine dihydrochloride], the inhibition at 1 µM at 5-HT1A receptors (setting [1]) was determined as 82%; at α2-adrenoceptors (setting [7]), 91%. Also, the “% displacement at 10^-6 M, α1” value with α1-adrenoceptors is on record as 94%.
In the case of `COc1cccc(N2CCC(CNCC3COc4ccccc4O3)CC2)c1` (centres unmarked) [Example 18, N-(1,4-benzodioxan-2-ylmethyl)-1-[1-(3-methoxyphenyl)piperid-4-yl]methylamine hydrochloride], the results for the Ki on 5-HT1A receptors (setting [6]) and on α2-adrenoceptors (setting [2]) were 7 nM and 242 nM, respectively.
Regarding `COc1ccccc1N1CCC(CNC[C@H]2COc3ccccc3O2)CC1` [Example 7, (S)-(-)-N-(1,4-benzodioxan-2-ylmethyl)-1-[1-(2-methoxyphenyl)-piperid-4-yl]methylamine], the inhibition at 1 µM at 5-HT1A receptors (setting [1]) came out at 96%; on α2-adrenoceptors (setting [7]), 72%. Further, the “% displacement at 10^-6 M, α1” value with α1-adrenoceptors is on record as 94%.
Turning to `COc1ccc(N2CCC(CNCC3COc4ccccc4O3)CC2)cc1.Cl.Cl` (centres unmarked) [Example 16, N-(1,4-benzodioxan-2-ylmethyl)-1-[1-(4-methoxyphenyl)piperid-4-yl]methylamine dihydrochloride], the results for the inhibition at 1 µM on 5-HT1A receptors (setting [4]) and on α2-adrenoceptors (setting [5]) were 98% and 64%, respectively. Besides, the “% displacement at 10^-6 M, α1” value in the assay with α1-adrenoceptors is 94%.
Consider `COc1ccccc1N1CCC(CNC[C@@H]2COc3ccccc3O2)CC1` [Example 14, (R)-(+)-N-(1,4-benzodioxan-2-ylmethyl)-1-[1-(2-methoxyphenyl)piperid-4-yl]methylamine], for which, on 5-HT1A receptors (setting [1]), the inhibition at 1 µM was determined as 87%. The compound further returned a Ki on α2-adrenoceptors (setting [2]) greater than 500 nM. In addition, in the assay on α1-adrenoceptors, the “% displacement at 10^-6 M, α1” value is 57%.
